33 molecules from the METLIN SMRT retention time set (Domingo-Almenara et al. 2019) can be followed below.

This data set is described as follows: gradient 5% acetonitrile 3 min, to 50% in 2 min, to 85% in 15 min, held 3 min, 100 µL/min. Conditions: column: Zorbax Extend-C18 2.1 x 50 mm; eluents: water / acetonitrile, 0.1% formic acid. A digest of the protocol:
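Over 3 months, pure standards in mixtures of ~100 molecules were run by HPLC coupled to a quadrupole time-of-flight mass spectrometer in positive and negative ionization mode. The column was a Zorbax Extend-C18 (2.1 × 50 mm, 1.8 μm) at 100 μL/min, eluted with water and acetonitrile each holding 0.1% formic acid, with 40 μL dead and 900 μL dwell volumes. Retention time was determined from adduct peaks chosen by software and checked manually.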
As to `COc1cc(CNS(=O)(=O)c2cccc(-c3nc(-c4ccccc4)no3)c2)cc(OC)c1OC`, the RP-LC retention time is 1040 s. The value for `CC(=O)OCCn1c([N+](=O)[O-])cnc1/C=[N+](\[O-])C1CCCCC1` was 753 s. In the case of `CC(C)(C)C(=O)N1CCCC(c2nc(CCNC(=O)C3CC3)cs2)C1` (stereo not drawn) it was 710 s.

The molecule `COc1ccc2c(c1)c(CN1CCC(C(=O)NCCN3CCOCC3)CC1)cn2C` returned an RP-LC retention time of 553 s. The value for `CCN1CCN(C(=O)Cc2c(C)nn(-c3nc(-c4ccc(C)cc4)cs3)c2C)CC1` was 730 s; that for `CCCCC(=O)Nc1ccc2nc(N3CCN(c4cccc(C)c4)CC3)cc(C(=O)O)c2c1` was 722 s; that for `CCc1ccccc1NC(=O)Nc1ccc2nnc(C)n2c1` was 712 s. The molecule `CCCN1C(=O)c2cc(S(=O)(=O)Nc3ccc(OC)cc3)ccc2Oc2cccnc21` displayed an RP-LC retention time of 1030 s. Molecule `O=C(c1cc2ccccc2[nH]1)N1CCN(c2ccc(=O)n(-c3cccc(Cl)c3)n2)CC1` registered an RP-LC retention time of 926 s.

On to `CCN1C(=O)c2cccc3c(NC(=O)Cc4cccs4)ccc1c23`, for which the RP-LC retention time was 718 s.

`Cc1ccc(-c2nc3cnccn3c2NCCC(=O)NC(C)c2ccccn2)cc1` (stereo not drawn) registered an RP-LC retention time of 586 s. The value for `Cc1cc(S(=O)(=O)N(C)CC2CCOCC2)ccc1Cl` was 963 s; that for `O=C1c2ccccc2C(=O)N1c1ncn[nH]1` was 667 s. In the case of `COc1ccc(-c2nnc(-c3ccc(C)c(S(=O)(=O)N4CCCC4)c3)o2)cc1OC` it was 937 s.

`Cc1ccc(Oc2cccc(C(=O)NCc3ccc(F)cc3)c2)nn1` gave an RP-LC retention time of 681 s. Take `CC1=C(C(=O)NCCCN2CC(C)CC(C)C2)C2(CCN(Cc3ccccc3)CC2)OC1=O` (stereo not drawn): the RP-LC retention time turned out to be 567 s. In the case of `Nc1nnc(-c2cccnc2)s1` it was 587 s. In the case of `CCOC(=O)c1c(S(=O)(=O)N2CCC(C(=O)Nc3ccc(F)cc3C)CC2)c(C)n(C)c1C` it was 897 s; in that of `CC(=O)N1CCc2cc(-c3ccc(C(=O)NCc4ccccn4)cc3)ccc21`, 584 s; in that of `COC1CCOC2(CCN(C(=O)c3ccoc3)CC2)C1` (stereo not drawn), 652 s. Turning to `COc1ccc2cccc(C(=N)c3ccc(C)c4c3CCC4)c2c1`, the RP-LC retention time worked out at 747 s. As to `Cc1cc(C)cc(C(=O)N2CCCC(C(=O)NCc3ccco3)C2)c1` (stereo not drawn), the RP-LC retention time came to 798 s. On to `CCCc1nnc(NC(=O)CSc2ccc(NC(=O)C3CC3)nn2)s1`, for which the RP-LC retention time is 694 s. `CN(C)C(=O)c1csc(S(=O)(=O)N2CCC(C(=O)Nc3ccc(F)cc3Cl)CC2)c1` yielded an RP-LC retention time of 792 s. Take `CC(C(=O)NCc1nn(C)c2ccccc12)c1ccccc1` (stereo not drawn): the RP-LC retention time was found to be 792 s.

For the molecule `Nc1nc(Cl)nc2c1ncn2[C@@H]1O[C@H](CO)[C@@H](O)[C@@H]1F`, the RP-LC retention time was determined as 600 s.

`CC(CNC(=O)Cn1c(=O)n(C(C)C)c2ccc(S(=O)(=O)N3CCCC3)cc21)c1ccccc1` (stereo not drawn) returned an RP-LC retention time of 905 s. For the molecule `CCCn1ccc2sc(C)c(C(=O)NCCC(C)C)c2c1=O`, the RP-LC retention time was determined as 901 s. The value for `O=C1NC(C(=O)NC2CC2)Cn2cccc21` (stereo not drawn) was 569 s. In the case of `CC(Oc1ccc(-c2cnc3ccccc3n2)cc1)C(=O)N1CCN(c2ncccn2)CC1` (stereo not drawn) it was 872 s; in that of `CCCn1c(=O)c(C)nc2cc(-c3noc(-c4cccc(F)c4)n3)ccc21`, 1210 s. The molecule `Cc1sc(NC(=O)c2ccccc2)c(C(Nc2ccccn2)c2cccs2)c1C` (stereo not drawn) returned an RP-LC retention time of 746 s. The value for `O=C(NCCCN1CCc2ccccc2C1)c1ccnc(-c2cccs2)c1` was 646 s.
